According to patent publication US7105558B2, “Gastrin and cholecystokinin receptor lignads (iv)” (The James Black Foundation Limited, priority 2000, dated 2006):

Molecular target: T1, gastrin (CCK2) receptors (Rattus norvegicus, UniProt P30553)
T1 construct: The stomach was excised and flushed with ca. 1 ml of unbuffered physiological saline solution; from tissue; host or cells: isolated whole stomach of immature rats (33-50 g, ca. 21 days old)
T1 sequence (P30553 1-452): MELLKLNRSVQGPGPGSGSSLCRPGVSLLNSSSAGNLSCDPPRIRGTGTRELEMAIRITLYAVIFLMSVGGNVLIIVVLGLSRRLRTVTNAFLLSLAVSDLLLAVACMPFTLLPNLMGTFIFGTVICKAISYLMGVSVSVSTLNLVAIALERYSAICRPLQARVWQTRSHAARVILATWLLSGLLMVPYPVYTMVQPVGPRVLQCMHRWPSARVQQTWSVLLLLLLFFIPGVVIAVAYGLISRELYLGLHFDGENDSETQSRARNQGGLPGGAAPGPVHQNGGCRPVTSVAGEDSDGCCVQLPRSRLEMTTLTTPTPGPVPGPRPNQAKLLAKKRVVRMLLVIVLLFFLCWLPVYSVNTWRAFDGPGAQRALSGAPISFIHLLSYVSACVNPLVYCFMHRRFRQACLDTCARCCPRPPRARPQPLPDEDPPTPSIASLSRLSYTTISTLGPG
Experiment: immature rat stomach assay for gastrin (CCK2) antagonist activity (pentagastrin-stimulated acid secretion)
Conditions: isolated immature rat stomach, antagonism of pentagastrin dose-response curves, 60 min incubation; tested as N-methyl D-glucamine salts; read-out: Rat stomach pKB (converted)
Protocol: The compounds of the examples were tested for gastrin (CCK2) antagonist activity in an immature rat stomach assay. The procedure was as follows:
The oesophagus of immature rats (33-50 g, ca. 21 days old) was ligated at the level of the cardiac sphincter and the duodenal sphincter was cannulated. The stomach was excised and flushed with ca. 1 ml of unbuffered physiological saline solution. The fundus was punctured and cannulated. A further 4-5 ml of unbuffered solution was flushed through the stomach to ensure the preparation was not leaking. The stomach was lowered into a jacketed organ bath containing 40 ml of buffered solution containing 3×10^−8 M 5-methylfurmethide, maintained at 37° and gassed vigorously with 95% O2/5% CO2. The stomach was continuously perfused at a rate of 1 ml min^−1 with unbuffered solution gassed with 100% O2 with the perfusate passing over an internally referenced pH-electrode fixed 12 cm above the stomach.
After 120 min of stabilisation the drugs were added directly to the serosal solution in the organ bath and after a further 60 min cumulative pentagastrin dose-response curves were started. Changes in acid secretion were monitored and the curves analysed according to Black et al, Br. J. Pharmacol., 1985, 86, 581.

Kb [µM]	Structure (SMILES)
0.229	O=C(O)c1cccc(NC(=O)c2nnn(-c3ccccc3Br)c2COC23CC4CC(CC(C4)C2)C3)c1 [Example 14, 3-[[5-(Adamantan-1-yloxymethyl)-1-(2-bromo-phenyl)-1H-[1,2,3]triazole-4-carbonyl]-amino]-benzoic acid]
0.0933	O=C(O)c1cccc(NC(=O)c2nnn(-c3ccccc3Cl)c2COC23CC4CC(CC(C4)C2)C3)c1 [Example 6, 3-[[5-(Adamantan-1-yloxymethyl)-1-(2-chloro-phenyl)-1H-[1,2,3]triazole-4-carbonyl]-amino]-benzoic acid]
2.09	O=C(O)c1cccc(NC(=O)c2nn(-c3ccccc3)nc2COC23CC4CC(CC(C4)C2)C3)c1 [Example 20, 3-[[5-(Adamantan-1-yloxymethyl)-2-phenyl-2H-[1,2,3]triazole-4-carbonyl]-amino]-benzoic acid]
